Measurements as given in patent publication US20200138734A1, “TOPICAL FORMULATION FOR TREATING BRUISING” (priority 2018, published 2020).
Where two headings read alike, the source gives them in different places.

Test system: bruise
[1] = lower concentrations within 2% to 20% by weight

## CCC(C)O (stereo not drawn) [2-Butanol]
2-Butanol alone in the topical formulation, without penetrant
  bruise resolution: would not provide the bruise resolution
4% -12% 2-Butanol by weight
  side-effects (pain, itching, redness, exfoliation): resolved
10% 2-Butanol by weight of topical formulation
  bruise resolution: very good bruise resolution
Higher concentrations within 2% to 20% by weight
  frequency and severity of side-effects, such as pain, itching, redness and exfoliation: increased
[1]
  efficacy of bruise resolution: decreased
  frequency and severity of side-effects: decreased
